Laboratory results as given in publication PMC10879537 (Nature Communications, 2024).
Values joined by “and” are separate entries in the source; they are usually repeats but may differ in a detail not shown here. Equal entries are not always repeated. Where two headings read alike, the source gives them in different places.

What was measured:
GX_P2V [1] = test: microbe, parasite or virus in culture; type: cell-based, Guangxi pangolin-CoV (GX_P2V); details: for inhibition at 0.193 µM / inhibition at 0.495 µM / inhibition at 0.78 µM / inhibition at 0.796 µM / inhibition at 1.097 µM / inhibition at 1.398 µM / inhibition at 1.699 µM / inhibition at 0.49485 µM / inhibition at 0.79588 µM / inhibition at 0.39 µM / inhibition at 0.193125 µM / inhibition at 1.09691 µM / inhibition at 1.39794 µM / inhibition at 1.69897 µM: Vero C1008, 48 h, read-out: Percentage of Inhibition (%)
SARS-CoV-2 trVLP [2] = test: microbe, parasite or virus in culture; details: Severe acute respiratory syndrome coronavirus 2, read-out: EC50 against SARS-CoV-2 trVLP
Vero E6 cells = test: cells; details: Chlorocebus sabaeus, Vero C1008, 48 h, read-out: Cytoxicity (%)
[3] = system: SARS-CoV-2 live virus (SARS-CoV-2/WH-09/human/2020/CHN); test: microbe, parasite or virus in culture; type: cell-based
[4] = system: MERS-CoV pseudotyped virus; test: microbe, parasite or virus in culture; type: cell-based; details: read-out: EC50 against MERS-CoV pseudotyped virus
GX_P2V [5] = test: organism not typed; type: cell-based, Guangxi pangolin-CoV (GX_P2V)
[6] = system: SADS-CoV strain CN/GDWT/2017; test: cells; type: cell-based, swine acute diarrhoea syndrome coronavirus (SADS-CoV); details: read-out: EC50 against SADS-CoV
SARS-CoV-2 trVLP [7] = type: cell-based
[8] = system: SARS-CoV-2 pseudotyped virus; test: microbe, parasite or virus in culture; type: cell-based; details: read-out: EC50 SARS-CoV-2pseudotypedvirus
PEDV strain CV777 = test: microbe, parasite or virus in culture; type: cell-based, porcine epidemic diarrhea virus (PEDV); details: read-out: EC50 against PEDV
[9] = system: SARS-CoV pseudotyped virus; test: microbe, parasite or virus in culture; type: cell-based
SARS-CoV-2 trVLP [10] = details: read-out: EC50 SARS-CoV-2 trVLP
[11] = Vero C1008, read-out: EC50 against GX_P2V

COc1cc2c(cc1OC)C(Cc1ccc(O)c(Oc3cc4c(cc3OC)CCN(C)C4Cc3ccc(O)cc3)c1)N(C)CC2 (stereo not drawn) [Liensinine (34), liensinine]
inhibition at 0.193 µM (GX_P2V [1]): 93.8% | inhibition at 0.495 µM (GX_P2V [1]): 84.2% | inhibition at 0.78 µM (GX_P2V [1]): 68.4% | inhibition at 0.796 µM (GX_P2V [1]): 74.4% | inhibition at 1.097 µM (GX_P2V [1]): 87.3% | inhibition at 1.398 µM (GX_P2V [1]): 100% | inhibition at 1.699 µM (GX_P2V [1]): 100% | EC50 (GX_P2V [1]; [11]): 0.7 µM | EC50 (SARS-CoV-2 trVLP [2]): 3.09 µM

CCC(CC)COC(=O)[C@H](C)N[P@](=O)(OC[C@H]1O[C@@](C#N)(c2ccc3c(N)ncnn23)[C@H](O)[C@@H]1O)Oc1ccccc1 [Remdesivir (30), remdesivir, reference compound]
cytotoxicity at 0.796 µM (Vero E6 cells): 6.65% | cytotoxicity at 1.097 µM (Vero E6 cells): 10.7% | cytotoxicity at 1.398 µM (Vero E6 cells): 9.43% | cytotoxicity at 1.699 µM (Vero E6 cells): 12.3% | EC50 ([3]; Severe acute respiratory syndrome coronavirus 2, Vero C1008, read-out: SARS-CoV-2 (Vero E6) EC50): 2.19 µM | inhibition at 0.193 µM (GX_P2V [1]): 91.6% | inhibition at 0.495 µM (GX_P2V [1]): 41.5% | inhibition at 0.796 µM (GX_P2V [1]): 90.9% | inhibition at 1.097 µM (GX_P2V [1]): 99.8% | inhibition at 1.398 µM (GX_P2V [1]): 100% | inhibition at 1.699 µM (GX_P2V [1]): 100% | EC50 (GX_P2V [1]; [11]): 1.64 µM | EC50 (SARS-CoV-2 trVLP [2]): 0.11 µM

COc1cc2c(cc1O)[C@@H]1Cc3ccc(OC)c(O)c3CN1CC2 [(S)-Scoulerine]
cytotoxicity at 0.193125 µM (Vero E6 cells): 25% | cytotoxicity at 0.39 µM (Vero E6 cells): 27.5% | cytotoxicity at 0.49485 µM (Vero E6 cells): 25.7% | cytotoxicity at 1.09691 µM (Vero E6 cells): 33.9% | cytotoxicity at 1.69897 µM (Vero E6 cells): 34% | inhibition at 0.49485 µM (GX_P2V [1]): 24.5%

COc1ccc2c(c1O)-c1c(O)c(OC)cc3c1[C@H](C2)[N+](C)(C)CC3 [Magnoflorine]
cytotoxicity at 0.193125 µM (Vero E6 cells): 3.29% | cytotoxicity at 0.39 µM (Vero E6 cells): 1.03% | cytotoxicity at 0.49485 µM (Vero E6 cells): 8.84% | cytotoxicity at 0.79588 µM (Vero E6 cells): 10.2% | cytotoxicity at 1.09691 µM (Vero E6 cells): 12.2% | cytotoxicity at 1.39794 µM (Vero E6 cells): 15.3% | cytotoxicity at 1.69897 µM (Vero E6 cells): 14.6% | inhibition at 0.79588 µM (GX_P2V [1]): 34.7%

Oc1ccc(C[C@@H]2NCCc3cc(O)c(O)cc32)cc1 [Compound 6, norcoclaurine]
cytotoxicity at 0.193125 µM (Vero E6 cells): 41.2% | cytotoxicity at 0.39 µM (Vero E6 cells): 28.8% | cytotoxicity at 0.49485 µM (Vero E6 cells): 9.98% | cytotoxicity at 0.79588 µM (Vero E6 cells): 52.9% | cytotoxicity at 1.09691 µM (Vero E6 cells): 10.9% | inhibition at 0.39 µM (GX_P2V [1]): 55.7% | inhibition at 0.78 µM (GX_P2V [1]): 83.5% | inhibition at 0.79588 µM (GX_P2V [1]): 68.5%

COc1cc2c(cc1O)[C@@H](Cc1ccc(O)cc1)N(C)CC2 [(R)-N-Methylcolaurine]
cytotoxicity at 0.193125 µM (Vero E6 cells): 9.96% | cytotoxicity at 0.39 µM (Vero E6 cells): 22.3% | cytotoxicity at 0.49485 µM (Vero E6 cells): 20.1% | cytotoxicity at 0.78 µM (Vero E6 cells): 13.4% | cytotoxicity at 0.79588 µM (Vero E6 cells): 9.7% | cytotoxicity at 1.39794 µM (Vero E6 cells): 23.2% | inhibition at 0.193125 µM (GX_P2V [1]): 25.6% | inhibition at 0.39 µM (GX_P2V [1]): 94.8% | inhibition at 0.49485 µM (GX_P2V [1]): 55.7% | inhibition at 0.79588 µM (GX_P2V [1]): 56.1%

COc1ccc(C[C@@H]2c3cc(Oc4cc(C[C@@H]5c6cc(OC)c(OC)cc6CCN5C)ccc4O)c(OC)cc3CCN2C)cc1 [Neferine (33), Neferine]
inhibition at 0.193 µM (GX_P2V [1]): 92.5% | inhibition at 0.495 µM (GX_P2V [1]): 91.2% | inhibition at 0.796 µM (GX_P2V [1]): 91.6% | inhibition at 1.097 µM (GX_P2V [1]): 100% | inhibition at 1.398 µM (GX_P2V [1]): 100% | inhibition at 1.699 µM (GX_P2V [1]): 100% | EC50 (GX_P2V [1]; [11]): 0.98 µM | EC50 (SARS-CoV-2 trVLP [2]): 6.24 µM

COc1cc2c3cc1Oc1cc(ccc1O)C[C@@H]1c4c(cc(OC)c(O)c4Oc4ccc(cc4)C[C@H]3N(C)CC2)CCN1C [L-curine]
inhibition at 0.49485 µM (GX_P2V [1]): 81.4%

isotetrandrine
EC50 [4]: 3.31 µM | EC50 ([3]; read-out: SARS-CoV-2 (Vero E6) EC50): 4.47 µM | Time of addition of anti-GX_P2V activity, Entry (GX_P2V [5]): 64.671 and 52.909 and 54.392 | Time of addition of anti-GX_P2V activity, Full-time (GX_P2V [5]): 95.271 and 94.111 and 93.848 | Time of addition of anti-GX_P2V activity, Post-entry (GX_P2V [5]): 79.054 and 80.217 and 78.230 | Percentage of Inhibition (%) (GX_P2V [1]): 100% | EC50 (GX_P2V [1]; read-out: EC50 GX_P2V): 7.43 µM | EC50 [6]: 3.67 µM | Time of addition of anti-SARS-CoV-2 trVLPs activity, Full-time (SARS-CoV-2 trVLP [7]): 69.205 and 66.812 and 64.054 | Time of addition of anti-SARS-CoV-2 trVLPs activity, Post-entry (SARS-CoV-2 trVLP [7]): 57.048 and 54.613 and 56.353 | EC50 [8]: 7.32 µM | EC50 (PEDV strain CV777): 1.67 µM | Percentage of Inhibition (%) [9]: 83.000% and 63.000% | EC50 ([9]; read-out: EC50 against SARS-CoV pseudotyped virus): 4.77 µM | EC50 (SARS-CoV-2 trVLP [10]): 2.82 µM

COc1ccc2cc1Oc1ccc(cc1)CC1c3cc(c(OC)cc3CCN1C)Oc1c(OC)c(OC)c(O)c3c1C(C2)N(C)CC3 (stereo not drawn) [Thalidezine (35), thalidezine]
inhibition at 0.495 µM (GX_P2V [1]): 53.4% | inhibition at 0.796 µM (GX_P2V [1]): 99.8% | inhibition at 1.097 µM (GX_P2V [1]): 100% | inhibition at 1.398 µM (GX_P2V [1]): 100% | inhibition at 1.699 µM (GX_P2V [1]): 100% | EC50 (GX_P2V [1]; [11]): 2.74 µM | EC50 (SARS-CoV-2 trVLP [2]): 4.37 µM

COc1cc2c(cc1O)-c1cc3ccc(OC)c(OC)c3c[n+]1CC2 [Columbamine]
cytotoxicity at 0.79588 µM (Vero E6 cells): 34.5% | inhibition at 1.09691 µM (GX_P2V [1]): 49.9% | inhibition at 1.39794 µM (GX_P2V [1]): 66.7%

COc1cc2c(cc1O)[C@@H](Cc1ccc(Oc3cc(C[C@@H]4c5cc(O)c(OC)cc5CCN4C)ccc3O)cc1)N(C)CC2 [Compound 32, guatteguamerine]
Antiviral activity (bioactivity) in dose-response analysis (GX_P2V [1]): lacked antiviral activity

COc1cc2c(cc1O)C(Cc1ccc(O)cc1)NCC2 (stereo not drawn) [Compound 11, coclaurine]
cytotoxicity at 0.193125 µM (Vero E6 cells): 8.1% | inhibition at 0.49485 µM (GX_P2V [1]): 33.2% | inhibition at 1.69897 µM (GX_P2V [1]): 28.7%

NCCc1ccc(O)c(O)c1 [Compound 4, dopamine, reference compound]
cytotoxicity at 0.49485 µM (Vero E6 cells): 23.1% | cytotoxicity at 0.78 µM (Vero E6 cells): 31.1% | cytotoxicity at 1.69897 µM (Vero E6 cells): 10.6% | Antiviral activity (bioactivity) in dose-response analysis (GX_P2V [1]): do not | inhibition at 0.193125 µM (GX_P2V [1]): 46.7% | inhibition at 0.39 µM (GX_P2V [1]): 33.8% | inhibition at 0.49485 µM (GX_P2V [1]): 92.6% | inhibition at 0.79588 µM (GX_P2V [1]): 41.1%

COc1ccc(C[C@H]2c3cc(O)c(OC)cc3CCN2C)cc1O [Compound 12, reticuline]
inhibition at 0.39 µM (GX_P2V [1]): 81.7% | inhibition at 0.49485 µM (GX_P2V [1]): 27.4% | inhibition at 0.78 µM (GX_P2V [1]): 60% | inhibition at 0.79588 µM (GX_P2V [1]): 65.7% | inhibition at 1.09691 µM (GX_P2V [1]): 49.6% | inhibition at 1.39794 µM (GX_P2V [1]): 28.1%

COc1ccc2c(c1O)-c1c(O)c(OC)cc3c1[C@H](C2)N(C)CC3 [(S)-corytuberine]
inhibition at 0.39 µM (GX_P2V [1]): 54.6% | inhibition at 0.78 µM (GX_P2V [1]): 42.8%

COc1cc(C[C@H]2c3cc(OC)c(OC)c(OC)c3CCN2C)c(Oc2cc3c(cc2OC)-c2c(OC)c(OC)c(OC)c4c2[C@H](C3)N(C)CC4)cc1OC [Methoxyadiantifoline (37), methoxyadiantifoline]
Percentage of Inhibition (%) (GX_P2V [1]): 100.000%

COc1cc2c(cc1O)[C@H](Cc1ccc(O)cc1)N(C)CC2 [(S)-N-Methylcolaurine]
cytotoxicity at 0.193125 µM (Vero E6 cells): 6.97% | cytotoxicity at 0.78 µM (Vero E6 cells): 47% | cytotoxicity at 1.39794 µM (Vero E6 cells): 2.6% | inhibition at 0.193125 µM (GX_P2V [1]): 17.4% | inhibition at 0.78 µM (GX_P2V [1]): 15.1% | inhibition at 0.79588 µM (GX_P2V [1]): 91.1% | inhibition at 1.09691 µM (GX_P2V [1]): 52.6% | inhibition at 1.69897 µM (GX_P2V [1]): 20.9%

COc1ccc2cc3[n+](cc2c1OC)CCc1cc2c(cc1-3)OCO2 [berberine (2), berberine, reference compound]
cytotoxicity at 0.193125 µM (Vero E6 cells): 7.94% | cytotoxicity at 0.49485 µM (Vero E6 cells): 11.2% | inhibition at 0.49485 µM (GX_P2V [1]): 52.1%
